Paper PMC8042910, “Adiponectin-mimetic novel nonapeptide rescues aberrant neuronal metabolic-associated memory deficits in Alzheimer’s disease” (Molecular Neurodegeneration, 2021)
Residues, ends and D or L forms follow the SMILES beside them.

What was measured:
[1] = Stability and half-life of Os-pep in mouse plasma; assay type: in vitro ADME; settings: 37 °C, LC-MS/MS
Description: The stability of Os-pep in mouse plasma was evaluated. An aqueous stock solution of Os-pep was added to each mouse plasma sample (n= 3) at a final concentration of 1 μg/mL. Tubes were placed in a Thermomixer (Eppendorf, Germany) and maintained at 37 °C with rotation at 300 rpm. These samples were incubated for up to 2 h. The amount of peptide remaining after the incubation was immediately determined by liquid chromatography-tandem mass spectrometry (LC-MS/MS). At different time intervals, an aliquot (100 μL) of ice-cold acetonitrile containing 0.1 μg/mL gabapentin (internal standard) was added to a 50 μL aliquot of the sample. Deproteinized samples were analyzed after vortex-mixing and centrifugation.

[2] = test system: learning and memory functions; experiment: Morris water maze (MWM) test; assay type: in vivo, mouse
Description: (§1) To evaluate the learning and memory functions of the mice, we performed the Morris water maze (MWM) and Y-maze tests. After completion of the Os-pep dosage regimen, behavioral studies were performed on AβO-injected, AβO-injected and scramble and functional AdipoR1 shRNA-treated, APP/PS1 and Adipo^−/− mice (n = 13/group) using the MWM and Y-maze tests. […] The mice were randomly selected, and the operators were unaware of the genotype and treatment details for the behavioral study. The MWM and Y-maze tests were performed as previously described.

SH-SY5Y cells = experiment: ApoTox-Glo Triplex assay (viability, cytotoxicity, caspase 3/7), AβO-exposed cells; assay type: cell-based, human; settings: AβO 1 μM, 12 h
Description: The ApoTox-Glo^TM Triplex assay (Promega, Madison, WI) was performed to assess the viability, cytotoxicity and caspase^3/7 activation in the human neuroblastoma SH-SY5Y and mouse hippocampal HT22 cells. SH-SY5Y and HT22 cells (2×10^4/ml) were cultured in 96-well plates (Thermo Fisher Scientific) containing DMEM supplemented with 10% FBS and 1% antibiotics and incubated at 37°C in a humidified incubator containing 5% CO2. After reaching 70% confluency, the cells were treated with AβO (1 µM) and different concentrations of Os-pep (0.5, 1, 5 and 10 µM) for 12 h. The control group (cells treated with 0.01% DMSO) was also analyzed. In addition, SH-SY5Y and HT22 cells were transfected with the AdipoR1 siRNA (h) (SC-60123) and AdipoR1 siRNA (m) (SC-60124), respectively, and treated with AβO (1 µM) and Os-pep (10 µM) for 12 h; the control group was transfected with the negative siRNA (Ambion, Thermo Fisher Scientific) and treated with 0.01% DMSO. The assay was performed according to our previously described protocols.

p-IRS-1 = experiment: Neuronal insulin resistance (p-IRS-1) in mouse brain, immunoblot; assay type: in vivo; settings: AβO-treated, APP/PS1, Adipo−/− and HFD mice, 5 μg/g, i.p., alternating days for 45 days
Description: (§2) Os-pep was dissolved in double-deionized distilled water and then prepared in normal saline to obtain the final administered concentration. The AβO, APP/PS1, Adipo^−/− and WT mice were injected i.p. with Os-pep at a dosage of 5 μg/g on alternating days for 45 days. WT, Veh-injected transgenic-APP/PS1 and Adipo^−/− mice were injected with the same volume of double-deionized water and normal saline. The WT control and sham mice as well as the Veh-injected AβO, APP/PS1, Adipo^−/− and HFD mice received the same volume of double-deionized distilled water or normal saline.
The protein concentrations of the homogenates of mouse brain tissue and cell lysates in vitro were measured using a Bio-Rad protein assay kit (Bio-Rad Laboratories, Hercules, CA), and immunoblotting was performed as we previously described, using primary antibodies (detailed information described in the supplementary Table 1). Western blotting membranes have been cut prior to original western blot images and original western blot images are available at supplementary material.
A separate cohort of animals was used to develop the HFD mouse model. Eight-week-old C57BL/6N male mice were bought from Samtako Bio (Republic of Korea). Mice were housed in the university animal housing facility under a 12 h/12 h light/dark cycle at 23°C and 60 ± 10% humidity, with food and water available ad libitum. […]

spatial working memory = experiment: Y-maze test; assay type: in vivo, mouse; settings: AβO-injected, APP/PS1 and Adipo−/− mice, n = 13/group
Description: as §1

mice = experiment: Safety of chronic optimized dosage regimen in mice; assay type: in vivo, mouse; settings: 5 μg/g, i.p.
Description: as §2
We monitored and weighed the mice three times per week to examine the effect of Os-pep dosage regimen (5 µg/g, i.p., on alternating days for 45 days) on the animals’ body weights. At the completion of the treatment, we calculated the average change in the body weight of the mice. At the completion of the treatments and behavioral experiments, blood samples were collected by cardiac puncture of the right atrium. […]

[3] = AβO-injected, APP/PS1 and Adipo−/− mice, n = 13/group

C[C@@H](O)[C@H](NC(=O)[C@@H]1CCCN1C(=O)CNC(=O)[C@H](CS)NC(=O)[C@@H]1CCCN1C(=O)CNC(=O)[C@H](CCC(N)=O)NC(=O)[C@@H](NC(=O)[C@@H](N)CS)[C@@H](C)O)C(=O)O [Os-pep] (H-CTQGPCGPT-OH; N-terminus and C-terminus assumed)
half-life (t1/2) ([1]; 1 μg/mL, incubated up to 2 h, n = 3, first-order kinetics): approximately 2 h
remaining at 2 h, 1 μg/mL ([1]; 300 rpm, after 2 h, n = 3, 0 min set to 100%, read-out: initial concentration remained): 53%
half-life at 1 μg/mL ([1]; triplicate samples, read-out: Half-life (printed in Fig. 8c) (converted)): 2.03 h
spatial learning/memory functions with AdipoR1 silencing (MWM and Y-maze) ([2]; AβO-injected mice exposed to shRNA silencing of AdipoR1 gene, vs scramble shRNA): did not improve spatial learning/memory functions
latency to reach the submerged platform, training session ([2]; AβO-injected, APP/PS1 and Adipo−/− mice, 5 μg/g, i.p., alternating days for 45 days, n = 13/group): decrease in the latency
number of platform crossings, probe test [2, 3]: significantly increased number of platform crossings
time spent in the target quadrant, probe test [2, 3]: more time was spent in the target quadrant
AβO-induced toxicity with AdipoR1 siRNA (SH-SY5Y cells; AdipoR1 siRNA-transfected SH-SY5Y, Os-pep 10 μM): did not reduce the AβO-induced toxicity
AβO neurotoxicity (viability, cytotoxicity, caspase 3/7) (SH-SY5Y cells; SH-SY5Y, Os-pep 10 μM): significantly reduced AβO (1 μM) neurotoxicity
neurotoxic effects of AβO (SH-SY5Y cells; SH-SY5Y, cotreatment 0.5, 1, 5 and 10 μM): reduced the neurotoxic effects of AβO
p-IRS-1 Ser636/312 levels (p-IRS-1): significantly reducing the increase
p-IRS-1 Tyr 632 levels (p-IRS-1): significantly increasing
percentage of spontaneous alternation behaviors (spatial working memory): significantly increased
liver or kidney dysfunction (serum biochemical parameters) (mice; alternating days for 45 days, APP/PS1, HFD and Adipo−/− mice): did not induce liver or kidney dysfunction
undesirable effects of chronic Os-pep treatment alone (mice; on alternating days for 45 days, Os-pep alone): did not induce any undesirable effects
